Test results as given in patent US8329617B2, “Compositions and methods for synergistic manipulation of plant and insect defenses” (Plant Bioscience Limited, priority 2007, dated 2012).

Key:
Bemisia tabaci, GUA MIX [1] = test: Glasshouse simulator trial: B. tabaci pupae protein on tomato plants treated with cis-jasmone and PBO; type: in vivo; conditions: for μg (Av) Total Protein (B. tabaci pupae): simulator, ten tomato plants per treatment, ten adult whiteflies per plant, ~16 days
Experimental: (§1) In all bioassay experiments the control plants were sprayed with deionised water. Initially seven treatments were used (Table 1) to test all chemical variables. All treatments were applied hydraulically with a spray simulator after which the plants were separated according to treatment (with cis-jasmone controls being separated) and left for 2 hours prior to insect application.
(§2) Analysis of protein in each treatment was conducted using Bradford Reagent: the data were analysed using the computer programme ‘GraFit’ (Erithacus software, Berkeley). To calculate the calibration curve a single logarithmic curve was used with regression analysis taking the values of the treatment wells (averages of the three readings taken: technical replicates).
(§3) A new method for the investigation of the development of whitefly to the pupal stage on tomatoes and cotton was used. […] These were checked for protein after ˜16 days using Bradford reagent.
(§4) Adults were added to the plant 2 h after treatment, and removed after 24 h. The eggs laid were then left for 16-18 days until they reached the pupal stage. The total pupal protein on the plant was tested using the Bradford reagent.
As described above 10 adult females were released on to each tomato plant, ten/treatment and after ˜16 days pupae were removed using a scalpel blade. These were checked for total protein using Bradford reagent. Plants were put into glasshouse simulators (one/treatment) and kept at 28° C., 12 L: […] and 80% R.H.

Myzus persicae, US1L [2] = test: Glasshouse simulator trial: M. persicae protein on pepper plants treated with cis-jasmone and PBO; type: in vivo; conditions: for μg (Av) Total Protein (M. persicae): simulator, 25 pepper plants per treatment, three adult apterous aphids per plant, 7 days
Experimental: as §1, §2
To investigate developmental/fecundity effects of cis-jasmone+/−PBO (see Table 1) on Myzus persicae when applied to sweet peppers, adults were added to the plants and then using Bradford reagent, the amount of aphid protein present on the plants 7 days after treatment was measured. Esterase levels were also tested after the same interval to check for the possible induction of metabolic enzymes when using cis-jasmone. Aphids were brushed from all plants and each leaf checked individually to ensure none remained. The aphid mass for each treatment was weighed before total protein was assessed (total from all […] plants in the treatment).
Myzus persicae were applied to sweet peppers at the rate of three adults per plant. Aphids were brushed from all plants and each leaf checked individually to ensure none remained. The aphid mass for each treatment was assessed for total protein (total from all 25 plants in the treatment) using Bradford reagent. The amount of aphid protein present on the plants 7 days after treatment was measured. Plants were put into glasshouse simulators (one/treatment) and kept at 28° C., 12 L: […] and 80% R.H.

Myzus persicae, US1L [3] = test: Bioassay: M. persicae protein on four pepper plants treated with cis-jasmone and PBO (1, 5 or 10 adults per plant); type: in vivo; conditions: for Av. Total Insect Protein μg: Bioassay, M. persicae (US1L), average of weeks 1 to 3; for μg (Av) Total Protein (M. persicae): four pepper plants, 7 days
Experimental: as §1
as §2, with “replicates). […]” for “replicates).”
To investigate developmental/fecundity effects of cis-jasmone+/−PBO E on Myzus persicae when applied to sweet peppers, one adult was added to the plants. Aphids were brushed from all plants and each leaf checked individually to ensure none remained. The aphid mass for each treatment was assessed for total protein (total from all four plants in the treatment) using Bradford reagent. The amount of aphid protein present on the plants 7 days after treatment was measured.
(§5) Myzus persicae was applied to sweet peppers at the rate of five adults were added per plant. Aphids were brushed from all plants and each leaf checked individually to ensure none remained. The aphid mass for each treatment was assessed for total protein (total from all four plants in the treatment) using Bradford reagent. The amount of aphid protein present on the plants 7 days after treatment was measured (for further information see Example 3).
as §5, with “persicae were” for “persicae was”, “of ten” for “of five”, “adults” for “adults were added”

Bemisia tabaci, GUA MIX [4] = test: Bioassay: B. tabaci pupae protein on one tomato plant treated with cis-jasmone and PBO; type: in vivo; conditions: for μg (Av) Total Protein (B. tabaci pupae): one tomato plant, ten adult whiteflies, ~16 days
Experimental: as §1, §2, §3, §4

B. tabaci = B. tabaci pupae protein on cotton plants treated with PBO and/or microencapsulated cis-jasmone; type: in vivo, Bemisia tabaci; conditions: for Protein WF (Av): five cotton plants per treatment, 5 adult female whiteflies per plant, ~16 days
Experimental: as §3, §4

Aphis gossypii = test: A. gossypii protein on cotton plants treated with propyl gallate and cis-jasmone; type: in vivo; conditions: five cotton plants, 3 adult apterous aphids per plant, 7 days
aphid (M. persicae) = test: Bioassay: M. persicae protein on potato, pepper and black mustard plants treated with BABA and/or PBO; type: in vivo, Myzus persicae; conditions: 3 adult apterous aphids per plant, 3 mM BABA root drench, PBO E spray, 7 days
Experimental: In all bioassay experiments the control plants were sprayed with deionised water. Initially seven treatments were used (Table 1b) to test all chemical variables. […] Analysis of protein in each treatment was conducted using Bradford Reagent: the data were analysed using the computer programme ‘GraFit’ (Erithacus software, Berkeley). To calculate the calibration curve a single logarithmic curve was used with regression analysis taking the values of the treatment wells (averages of the three readings taken: technical replicates). Laboratory tests were undertaken to compare effects of combined and single treatments of PBO and BABA on control of aphid (M. persicae) on potato, pepper, and black mustard and whitefly (B. tabaci) on cotton and tomato. All tests included untreated and blank (water) controls, and both single and combined applications of PBO and BABA. […] To investigate developmental/fecundity effects of BABA+/−PBO E (see Table 1) on Myzus persicae when applied to plants, adults were added to the plants and then using Bradford reagent, the amount of aphid protein present on the plants 7 days after treatment was measured. Esterase levels were also tested after the same interval to check for the possible induction of metabolic enzymes when using BABA. Aphids were brushed from all plants and each leaf checked individually to ensure none remained. The aphid mass for each treatment was weighed before total protein was assessed (total from all five plants in the treatment).

## CCCCOCCOCCOCc1cc2c(cc1CCC)OCO2 [PBO, 2-(2-butoxyethoxy)ethyl 6-propylpiperonyl ether]
Bemisia tabaci, GUA MIX [1]; B. tabaci on tomato, simulator trial
  effect of addition of PBO to cis-jasmone on reduction of insect protein (in words): potentiates the effect of cis-jasmone
Bemisia tabaci, GUA MIX [1]; Simulator, Bemisia tabaci (GUA MIX) on Tomato (Carousel), average of weeks 1 to 3
  Av. Total Insect Protein μg: 0.156 µg
Bemisia tabaci, GUA MIX [1]; week 1
  μg (Av) Total Protein (B. tabaci pupae): 0.165 µg
Bemisia tabaci, GUA MIX [1]; week 2
  μg (Av) Total Protein (B. tabaci pupae): 0.169 µg
Bemisia tabaci, GUA MIX [1]; week 3
  μg (Av) Total Protein (B. tabaci pupae): 0.134 µg
Myzus persicae, US1L [2]; M. persicae on pepper, simulator trial
  effect of addition of PBO to cis jasmone on efficacy (in words): does not significantly increase efficacy
Myzus persicae, US1L [2]; Simulator, M. persicae (US1L) on Pepper (BellBoy), average of weeks 1 to 3
  Av. Total Insect Protein μg: 14.406 µg
Myzus persicae, US1L [2]; week 1
  μg (Av) Total Protein (M. persicae): 14.72 µg
Myzus persicae, US1L [2]; week 2
  μg (Av) Total Protein (M. persicae): 14.2 µg
Myzus persicae, US1L [2]; week 3
  μg (Av) Total Protein (M. persicae): 14.3 µg
Myzus persicae, US1L [3]; 1 adult/plant
  Av. Total Insect Protein μg: 10.710 µg
Myzus persicae, US1L [3]; 5 adults/plant
  Av. Total Insect Protein μg: 21.500 µg
Myzus persicae, US1L [3]; 10 adults/plant
  Av. Total Insect Protein μg: 35.200 µg
Myzus persicae, US1L [3]; M. persicae on pepper, five adults per plant
  effect of addition of PBO to cis-jasmone on reduction of insect protein (in words): potentiates the effect of cis-jasmone
Myzus persicae, US1L [3]; M. persicae on pepper, small scale assays, 10, 5 or 1 adult aphid per plant
  reduction in total aphid protein (in words): no significant reduction
Myzus persicae, US1L [3]; five adult apterous aphids per plant, week 1
  μg (Av) Total Protein (M. persicae): 23.60 µg
Myzus persicae, US1L [3]; five adult apterous aphids per plant, week 2
  μg (Av) Total Protein (M. persicae): 17.29 µg
Myzus persicae, US1L [3]; five adult apterous aphids per plant, week 3
  μg (Av) Total Protein (M. persicae): 23.60 µg
Myzus persicae, US1L [3]; one adult apterous aphid per plant, week 1
  μg (Av) Total Protein (M. persicae): 13.64 µg
Myzus persicae, US1L [3]; one adult apterous aphid per plant, week 2
  μg (Av) Total Protein (M. persicae): 8.50 µg
Myzus persicae, US1L [3]; one adult apterous aphid per plant, week 3
  μg (Av) Total Protein (M. persicae): 10.01 µg
Myzus persicae, US1L [3]; ten adult apterous aphids per plant, week 1
  μg (Av) Total Protein (M. persicae): 38.91 µg
Myzus persicae, US1L [3]; ten adult apterous aphids per plant, week 2
  μg (Av) Total Protein (M. persicae): 33.2 µg
Myzus persicae, US1L [3]; ten adult apterous aphids per plant, week 3
  μg (Av) Total Protein (M. persicae): 33.5 µg
Bemisia tabaci, GUA MIX [4]; B. tabaci on tomato, bioassay
  effect of adding PBO to the cis-jasmone treatment (in words): clear and highly significant (p<0.001) synergistic effect
Bemisia tabaci, GUA MIX [4]; Bioassay, Bemisia tabaci (GUA MIX), average of weeks 1 to 3
  Av. Total Insect Protein μg: 0.419 µg
Bemisia tabaci, GUA MIX [4]; week 1
  μg (Av) Total Protein (B. tabaci pupae): 0.28 µg
Bemisia tabaci, GUA MIX [4]; week 2
  μg (Av) Total Protein (B. tabaci pupae): 0.28 µg
Bemisia tabaci, GUA MIX [4]; week 3
  μg (Av) Total Protein (B. tabaci pupae): 0.3 µg
B. tabaci; B. tabaci on cotton
  effect of addition of PBO to microencapsulated cis-jasmone (in words): potentiates the effect of this new microencapsulated cis-jasmone
B. tabaci; week 1
  Protein WF (Av): 0.167 µg
B. tabaci; week 2
  Protein WF (Av): 0.16 µg
B. tabaci; week 3
  Protein WF (Av): 0.17 µg
Aphis gossypii; week 1
  Protein A (Av): 20.05 µg
Aphis gossypii; week 2
  Protein A (Av): 15.1 µg
Aphis gossypii; week 3
  Protein A (Av): 16.3 µg
Aphid (M. persicae); five black mustard plants, week 1
  Protein A (Av): 19.30 µg
Aphid (M. persicae); five black mustard plants, week 2
  Protein A (Av): 18.90 µg
Aphid (M. persicae); five black mustard plants, week 3
  Protein A (Av): 18.00 µg
Aphid (M. persicae); five pepper plants, week 1
  Protein A (Av): 22.10 µg
Aphid (M. persicae); five pepper plants, week 2
  Protein A (Av): 21.60 µg
Aphid (M. persicae); five pepper plants, week 3
  Protein A (Av): 23.50 µg
Aphid (M. persicae); five potato plants, week 1
  Protein A (Av): 17.60 µg
Aphid (M. persicae); five potato plants, week 2
  Protein A (Av): 22.30 µg
Aphid (M. persicae); five potato plants, week 3
  Protein A (Av): 19.20 µg
esterase
  optimal concentration of PBO for esterase inhibition: 1000 ppm
